Two compounds from ChEMBL document CHEMBL3046652, “Photodimerization of heteroaryl chalcones: comparative antimicrobial activities of chalcones and their photoproducts” (2012) can be followed below.

≈ marks a conversion by molar mass, not a printed value.

Common to all, as to type: functional
Assay [1] deals with Pseudomonas aeruginosa. Briefly: Antimicrobial activity against Pseudomonas aeruginosa at 10 ug/disk by disk diffusion method. The note with it: read-out: DIZ. (Agar diffusion results depend on both activity and mobility in agar.)
Assay [2] concerns Aspergillus oryzae. Briefly: Antimicrobial activity against Aspergillus oryzae at 10 ug/disk by disk diffusion method. The note with it: read-out: DIZ.
The subject of assay [3] is Klebsiella pneumoniae. Description: Antimicrobial activity against Klebsiella pneumoniae at 10 to 60 ug/disk by disk diffusion method.
Assay [4] relates to Serratia marcescens. Briefly: Antimicrobial activity against Serratia marcescens by disk diffusion method.
In assay [5] the test system is Pseudomonas aeruginosa. Briefly: Antimicrobial activity against Pseudomonas aeruginosa by disk diffusion method.
Assay [6] has as its system Candida albicans. Description: Antimicrobial activity against Candida albicans at 40 ug/disk by disk diffusion method. Conditions: read-out: DIZ.
The subject of assay [7] is Escherichia coli. Description: Antimicrobial activity against Escherichia coli at 10 ug/disk by disk diffusion method. Conditions: read-out: DIZ.
The test system of assay [8] is Escherichia coli. Briefly: Antimicrobial activity against Escherichia coli by disk diffusion method.
Assay [9] deals with Micrococcus luteus. Briefly: Antimicrobial activity against Micrococcus luteus at 10 ug/disc by disk diffusion method. Conditions: read-out: DIZ.
Assay [10] has as its system Salmonella typhi. Briefly: Antimicrobial activity against Salmonella enterica subsp. enterica serovar Typhi at 10 ug/disk by disk diffusion method. Conditions: read-out: DIZ.
Assay [11] concerns Citrobacter freundii. Description: Antimicrobial activity against Citrobacter freundii at 20 ug/disk by disk diffusion method. The note with it: read-out: DIZ.
The test system of assay [12] is Priestia megaterium. Briefly: Antimicrobial activity against Bacillus megaterium by disk diffusion method.
Assay [13] has as its system Citrobacter freundii. Briefly: Antimicrobial activity against Citrobacter freundii by disk diffusion method.
Assay [14] concerns Priestia megaterium. Description: Antimicrobial activity against Bacillus megaterium at 10 ug/disk by disk diffusion method. Conditions: read-out: DIZ.
Assay [15] concerns Fusarium verticillioides. Description: Antimicrobial activity against Fusarium verticillioides at 10 ug/disk by disk diffusion method. The note with it: read-out: DIZ.
For the next assay, the system named is Aspergillus niger. Description: Antimicrobial activity against Aspergillus niger at 20 ug/disk by disk diffusion method. Conditions: read-out: DIZ.
In assay [16] the test system is Salmonella typhi. Description: Antimicrobial activity against Salmonella enterica subsp. enterica serovar Typhi by disk diffusion method.
The test system of assay [17] is Micrococcus luteus. Description: Antimicrobial activity against Micrococcus luteus by disk diffusion method.
Assay [18] has as its system Proteus vulgaris. Briefly: Antimicrobial activity against Proteus vulgaris by disk diffusion method.
Assay [19] concerns Proteus vulgaris. Briefly: Antimicrobial activity against Proteus vulgaris at 20 ug/disk by disk diffusion method. The note with it: read-out: DIZ.
The subject of assay [20] is Serratia marcescens. Briefly: Antimicrobial activity against Serratia marcescens at 20 ug/disk by disk diffusion method. Conditions: read-out: DIZ.
Assay [21] relates to Klebsiella pneumoniae. Description: Antimicrobial activity against Klebsiella pneumoniae by disk diffusion method.
The subject of assay [22] is Candida albicans. Description: Antimicrobial activity against Candida albicans at 10 ug/disk by disk diffusion method. Conditions: read-out: DIZ.
For assay [23], the system named is Fusarium verticillioides. Description: Antimicrobial activity against Fusarium verticillioides at 30 ug/disk by disk diffusion method. Conditions: read-out: DIZ.
For assay [24], the system named is Salmonella typhi. Description: Antimicrobial activity against Salmonella enterica subsp. enterica serovar Typhi at 50 ug/disk by disk diffusion method. The note with it: read-out: DIZ.
The test system of assay [25] is Proteus vulgaris. Briefly: Antimicrobial activity against Proteus vulgaris at 10 ug/disk by disk diffusion method. Conditions: read-out: DIZ.
For assay [26], the system named is Escherichia coli. Briefly: Antimicrobial activity against Escherichia coli at 30 ug/disk by disk diffusion method. The note with it: read-out: DIZ.
Assay [27] concerns Aspergillus oryzae. Briefly: Antimicrobial activity against Aspergillus oryzae at 30 ug/disk by disk diffusion method. The note with it: read-out: DIZ.
For assay [28], the system named is Serratia marcescens. Briefly: Antimicrobial activity against Serratia marcescens at 10 ug/disk by disk diffusion method. Conditions: read-out: DIZ.
In assay [29] the test system is Pseudomonas aeruginosa. Description: Antimicrobial activity against Pseudomonas aeruginosa at 40 ug/disk by disk diffusion method. The note with it: read-out: DIZ.
In assay [30] the test system is Klebsiella pneumoniae. Description: Antimicrobial activity against Klebsiella pneumoniae at 20 ug/disk by disk diffusion method. Conditions: read-out: DIZ.

One may read the MIC as the least concentration at which growth counts as inhibited. `O=C(/C=C/c1ccccc1)c1cccs1`: the zone of inhibition at 10 µg/disc in the assay with Pseudomonas aeruginosa [1] stood at 5 mm; in the assay with Aspergillus oryzae [2] it was 9 mm; in the assay on Escherichia coli [7], 5 mm; in the assay with Micrococcus luteus [9], 9 mm; with Salmonella typhi [10], 12 mm; in the assay with Priestia megaterium [14], 10 mm. Besides, in the assay on Fusarium verticillioides [15], the zone of inhibition at 10 µg/disc was 9 mm. The “diameter of the inhibition zone (DIZ)” value in the assay on Klebsiella pneumoniae [3] came out at 10 mm. Further, the MIC in the assay on Serratia marcescens [4], with Pseudomonas aeruginosa [5], against Escherichia coli [8], in the assay with Priestia megaterium [12], in the assay on Citrobacter freundii [13] and against Salmonella typhi [16] was 10 µg/mL (≈ 46.7 µM) in each case. The MIC with Micrococcus luteus [17], with Proteus vulgaris [18] and against Klebsiella pneumoniae [21] was 10 µg/mL (≈ 46.7 µM) each time. The zone of inhibition at 40 µg/disc with Candida albicans [6] was 9 mm. Besides, the zone of inhibition at 20 µg/disc in the assay on Citrobacter freundii [11] was 7 mm; with Aspergillus niger, 7 mm; in the assay with Proteus vulgaris [19], 11 mm; in the assay with Serratia marcescens [20], 9 mm.
For the compound `O=C(/C=C/c1ccccc1)c1ccc[nH]1`, the zone of inhibition at 10 µg/disc with Candida albicans [22] was 7 mm; with Micrococcus luteus [9], 7 mm; in the assay on Priestia megaterium [14] it was 13 mm; in the assay with Proteus vulgaris [25], 5 mm; with Serratia marcescens [28], 9 mm. The MIC in the assay on Serratia marcescens [4], with Pseudomonas aeruginosa [5], in the assay on Escherichia coli [8], with Priestia megaterium [12], against Citrobacter freundii [13] and in the assay on Salmonella typhi [16] was 10 µg/mL (≈ 50.7 µM) throughout. For the same compound, the MIC against Micrococcus luteus [17], in the assay on Proteus vulgaris [18] and in the assay on Klebsiella pneumoniae [21] was 10 µg/mL (≈ 50.7 µM) throughout. Also, the zone of inhibition at 30 µg/disc in the assay with Fusarium verticillioides [23] amounted to 8 mm; in the assay with Escherichia coli [26], 7 mm; in the assay with Aspergillus oryzae [27], 9 mm. Moreover, the zone of inhibition at 20 µg/disc with Citrobacter freundii [11] turned out to be 6 mm; in the assay on Aspergillus niger it was 11 mm; in the assay on Klebsiella pneumoniae [30] it was 8 mm. For the same compound, the zone of inhibition at 50 µg/disc with Salmonella typhi [24] is 7 mm. Moreover, in the assay with Pseudomonas aeruginosa [29], the zone of inhibition at 40 µg/disc was 7 mm.
